The subject of experiment [1] is E. coli clinical isolates. Description: MIC by broth microdilution against clinical isolates of E. coli. The class given is cell-based. (Dilution methods test growth across graded concentrations, often in twofold steps.)
The test system of experiment [2] is CTX-M-15-producer isogenic strain. Description: Disc diffusion test, CTX-M-15-producer. The class given is cell-based, E. coli. As to conditions: cefotaxime disc 30 µg. Background: Agar diffusion results depend on both activity and mobility in agar.
Experiment [3] has as its system isogenic strain producing KPC-2. Description: Time-kill kinetic assay, KPC-2-producing isogenic strain. The experiment is classed as cell-based, E. coli. As to conditions: imipenem 4 µg/mL + inhibitor 4 µg/mL, KPC-2 strain.
The test system of experiment [4] is isogenic strain producing CTX-M-15. Description: Time-kill kinetic assay, CTX-M-15-producing isogenic strain. The experiment is classed as cell-based, E. coli. As to conditions: cefotaxime 2 µg/mL + inhibitor 4 µg/mL; CTX-M-15 strain.
The subject of experiment [5] is K. pneumoniae clinical isolates. Description: MIC by broth microdilution against clinical isolates of K. pneumoniae. The class given is cell-based. As to conditions: for MIC range: K. pneumoniae clinical isolates, 25 isolates.
Experiment [6] has as its system KPC-2-producer isogenic strain. Description: Disc diffusion test, KPC-2-producer. The class given is cell-based, E. coli. As to conditions: imipenem disc 10 µg.
Experiment [7] concerns the target KPC-2 (Klebsiella pneumoniae, UniProt Q9F663). Briefly: Purified β-lactamase inhibition assay with nitrocefin, KPC-2. The experiment is classed as biochemical, K. pneumoniae.
The subject of experiment [8] is CTX-M-15. Conditions: ref 17 (Faheem et al.); cited from earlier work.
The target of experiment [9] is CTX-M-15 (Escherichia coli, UniProt Q9EXV5). Description: Purified β-lactamase inhibition assay with nitrocefin, CTX-M-15. The experiment is classed as biochemical, E. coli.
Chain of CTX-M-15 (Escherichia coli, UniProt Q9EXV5) (Q9EXV5 29-291): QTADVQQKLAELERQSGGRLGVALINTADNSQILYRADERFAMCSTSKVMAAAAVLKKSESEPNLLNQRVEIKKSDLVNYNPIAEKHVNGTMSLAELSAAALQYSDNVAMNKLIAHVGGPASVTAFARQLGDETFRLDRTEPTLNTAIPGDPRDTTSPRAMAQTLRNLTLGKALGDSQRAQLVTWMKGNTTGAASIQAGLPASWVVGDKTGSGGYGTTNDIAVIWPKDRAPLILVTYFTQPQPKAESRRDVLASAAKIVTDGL

In brackets after ≈: the same amount, converted by molar mass.

Chain of KPC-2 (Q9F663 25-293, looked up): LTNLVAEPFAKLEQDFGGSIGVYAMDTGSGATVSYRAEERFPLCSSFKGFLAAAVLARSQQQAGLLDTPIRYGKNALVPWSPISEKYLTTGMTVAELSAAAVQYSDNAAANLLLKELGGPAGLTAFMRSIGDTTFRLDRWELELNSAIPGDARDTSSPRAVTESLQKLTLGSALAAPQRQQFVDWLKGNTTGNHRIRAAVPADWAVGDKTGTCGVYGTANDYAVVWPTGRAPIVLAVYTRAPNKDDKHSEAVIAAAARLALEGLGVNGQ

For `CC1=C(C(=O)O)N2C(=O)[C@@H](NC(=O)[C@H](N)c3ccccc3)[C@H]2SC1` [Cefalexin, cefalexin], in experiment [1] (Escherichia coli), the MIC90 is 512 µg/mL (≈ 1470 µM).

Regarding `CO/N=C(\C(=O)N[C@@H]1C(=O)N2C(C(=O)O)=C(COC(C)=O)CS[C@H]12)c1csc(N)n1` [Cefotaxime, cefotaxime], in [1] (E. coli clinical isolates, 25 isolates), the MIC range lay in the range of 64 to 128 µg/mL. Besides, the “disc diffusion result, antibiotic disc only” value in [2] is given as “resistance”.

`O=C(O)[C@H]1/C(=C/CO)O[C@@H]2CC(=O)N21` [Clavulanic acid, clavulanic acid]: the “reduction in CFU” value in experiment [3] (after 6 h of incubation) is 2 log10. Moreover, the “incubation time after which viable count was below the limit of detection” value in experiment [4] is on record as 10 h.

As to `C[C@@H](O)[C@H]1C(=O)N2C(C(=O)O)=C(SCCN=CN)C[C@H]12` [Imipenem, imipenem], the MIC range in [5] was 64 to 512 µg/mL. For the same compound, the “disc diffusion result, antibiotic disc only” value in experiment [6] was “resistance”.

For `C[C@@H](O)[C@H]1C(=O)N2C(C(=O)O)=C(S[C@@H]3CN[C@H](C(=O)Nc4cccc(C(=O)O)c4)C3)[C@H](C)[C@H]12` [Ertapenem, ertapenem], the MIC range in [5] and in [5] (listed as ertapenem) was 8 to 256 µg/mL in each case. The MIC90 in experiment [5] (Klebsiella pneumoniae) is 32 µg/mL (≈ 67.3 µM).

As to `C[C@]1(Cn2ccnn2)[C@H](C(=O)O)N2C(=O)C[C@H]2S1(=O)=O` [Tazobactam, tazobactam], the half-inhibitory concentration (IC50) was 69.6 µM in experiment [7] and 58.3 µM in experiment [9]. For the same compound, the Ki is 29.2 µM in experiment [7] and around 31 µM in experiment [9] (Ki, CTX-M-15, nitrocefin substrate). For the same compound, the “incubation time after which viable count was below the limit of detection” value in [3] was 8 h; in [4], 6 h. Moreover, in [8], the “decrease of the MICs of some cephalosporin antibiotics” value is recorded as 2–16 folds.

Usually MIC90 stands for an inhibitory concentration at the 90% level, which refers to growth in some studies and to a panel of isolates in others. A lower MIC90 goes with higher susceptibility. The IC50 is the concentration needed to halve the response being measured. By Ki is commonly meant a dissociation constant, usually derived from enzyme kinetics or from competition with a known ligand. Read a high Ki as lower affinity.

These data come from paper PMC11308155 (Microbial Cell Factories, 2024).
